The target of assay [1] is T1, SGK1 (Homo sapiens, UniProt O00141, S422D).
T1 sequence (O00141 60-431 S422D limits assumed): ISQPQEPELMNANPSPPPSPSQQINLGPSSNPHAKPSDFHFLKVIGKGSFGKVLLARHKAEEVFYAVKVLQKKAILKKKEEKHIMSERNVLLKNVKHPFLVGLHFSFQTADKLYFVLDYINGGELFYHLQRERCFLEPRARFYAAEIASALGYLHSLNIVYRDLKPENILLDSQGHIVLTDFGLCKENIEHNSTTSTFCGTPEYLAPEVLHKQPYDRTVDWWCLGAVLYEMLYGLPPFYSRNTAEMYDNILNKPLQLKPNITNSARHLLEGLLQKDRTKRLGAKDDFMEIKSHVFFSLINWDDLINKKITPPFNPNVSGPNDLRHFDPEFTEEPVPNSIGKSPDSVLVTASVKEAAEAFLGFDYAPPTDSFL
Also noted: method as in PMID 27481935. The settings on record: cited from earlier work.

Assay [2] has as its system phosphorylation of NDRG1 at Thr346. Put plainly: NDRG1 phosphorylation in HEK293 cells, immunoblot. The assay is classed as cell-based. The note with it: HEK293, 8 h, 0.3 μM SGK3-PROTAC1, 1 μM 14H, 1 μM 308-R. As to the method: Figure 3 Characterization of cellular activities of SGK3-PROTAC1 and cisSGK3-PROTAC1. (A) HEK293 cells were first treated for 8 h with 0.03–3 μM SGK3-PROTAC1 and cisSGK3-PROTAC1. One hour before lysis, cells were treated with 3 μM AZD5363. Lysates were subjected to immunoblot analysis with the indicated antibodies. […] Lysates were subjected to immunoblot analysis with the indicated antibodies. (C) HEK293 cells were treated for up to 48 h with SGK3-PROTAC1 (0.3 μM), and lysates were analyzed by immunoblot analysis using the indicated antibodies. (D) HEK293 cells were treated for 24 h with SGK3-PROTAC1. Cells were washed three times with DMEM to wash out the compound, and recovery of SGK3 expression protein was analyzed by immunoblot analysis. (E–G) As in A except that CAMA-1 (E), ZR-75-1 (F), and JIMT-1 (G) cells were employed rather than HEK293 cells.
To study the impact of SGK3-PROTAC1 on phosphorylation of a physiological substrate, we monitored phosphorylation of NDRG1 at Thr346.[37] This site is also phosphorylated by Akt; therefore we treated cells with increasing doses of SGK3-PROTAC1 and cisSGK3-PROTAC1 for 8 h, with the addition of an Akt inhibitor (3 μM AZD5363) 1 h before lysis, to remove the impact of Akt phosphorylation of NDRG1. […] Concentrations of cisSGK3-PROTAC1 of above 1 μM were required to lower NDRG1 phosphorylation. […] This is consistent with previous work in HEK293 cells showing that inhibition of both Akt and SGK3 is required to block NDRG1 phosphorylation.[8],[37]
All cell treatments were carried out as described in figure legends, to a final DMSO concentration of 0.1% (v/v). Lysates were quantified. Immunoblotting was performed using standard procedures, described in brief below. Lysate concentration was quantified by Bradford Assay, and 10 μg of lysate was loaded in the LDS sample buffer for SDS-PAGE electrophoresis on Novex 4–12% Bis–Tris gels. Proteins were electrophoretically transferred onto nitrocellulose membranes (Amersham Protran 0.45 μm NC; GE Healthcare) at 80 V for 80 min on ice in transfer buffer. Transferred membranes were blocked with 5% (w/v) nonfat dry milk dissolved in TBS-T [20 mM Tris/HCl, pH 7.5, 150 mM NaCl, and 0.1% (v/v) Tween 20] at RT for 30 min, before incubation with the primary antibody overnight at 4 °C. The signal was produced with near-infrared secondary antibodies and detected using a Licor Biosciences Odyssey System, and the signal was quantified in Image Studio Lite.

Assay [3] addresses S6K1 (Homo sapiens, UniProt P23443, T412E). Also noted: method as in PMID 27481935. The note with it: cited from earlier work.
The subject of assay [4] is ZR-75-1 cells. Put plainly: Cell growth (confluency, Incucyte S3). The assay is classed as cell-based. The note with it: ZR-75-1; 1 μM GDC0941 or AZD5363; SGK3-PROTAC1/cisSGK3-PROTAC1 0.3 μM, 14H 3 μM. As for the experimental part:
(§1) Figure 6 SGK3-PROTAC1-mediated degradation of SGK3 further inhibiting the growth of cancer cell lines treated with PI3K-Akt pathway inhibitors. CAMA-1 (A, C) and ZR-75-1 (B, D) were treated with compounds as indicated either as monotherapy or in combination, and confluency was measured on the Incucyte S3 every 4 h for up to 4 weeks.
(§2) For growth assays, ZR-75-1 cells were seeded in 96-well plates at a density of 6000 cells/well and left to adhere overnight. Cells were then treated with compounds as described in the figure legends and imaged every 4 h on the Incucyte S3 (Essen Bioscience) for up to 4 weeks to give a measure of cell confluency. Media were refreshed every 4–5 days.
(§3) Supplementary Figure S3. SGK3-PROTAC compounds have no effect on cell growth. CAMA-1 and ZR-75-1
(§4) confluency was m easured every 4 h on Incucyte S3.
(§5) (1 picture or pasted object on this page, not shown here)

In assay [5] the test system is CAMA-1 cells. Put plainly: Cell growth (confluency, Incucyte S3). The settings on record: CAMA-1; 1 μM GDC0941 or AZD5363; SGK3-PROTAC1/cisSGK3-PROTAC1 0.3 μM, 14H 3 μM. The format is cell-based. As to the method:
as §1, §2, §3, §4, §5

Assay [6] concerns the target T2, SGK3 (Homo sapiens, UniProt Q96BR1).
T2 sequence (Q96BR1 1-496): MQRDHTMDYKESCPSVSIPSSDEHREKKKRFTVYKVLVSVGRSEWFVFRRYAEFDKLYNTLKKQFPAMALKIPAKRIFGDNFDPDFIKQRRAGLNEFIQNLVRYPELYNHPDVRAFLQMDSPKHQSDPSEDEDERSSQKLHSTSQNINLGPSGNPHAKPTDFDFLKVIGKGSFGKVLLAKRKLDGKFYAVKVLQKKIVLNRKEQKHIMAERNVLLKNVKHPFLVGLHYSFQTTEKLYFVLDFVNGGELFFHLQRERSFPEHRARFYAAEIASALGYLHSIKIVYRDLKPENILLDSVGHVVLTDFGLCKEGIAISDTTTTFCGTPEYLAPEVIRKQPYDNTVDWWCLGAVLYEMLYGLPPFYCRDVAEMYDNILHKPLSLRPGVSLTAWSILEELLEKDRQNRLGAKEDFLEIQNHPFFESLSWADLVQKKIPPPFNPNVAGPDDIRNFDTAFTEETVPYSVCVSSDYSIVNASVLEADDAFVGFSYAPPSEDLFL
Also noted: method as in PMID 27481935. The note with it: cited from earlier work.

Sequence of S6K1 (P23443 1-421 T412E limits assumed): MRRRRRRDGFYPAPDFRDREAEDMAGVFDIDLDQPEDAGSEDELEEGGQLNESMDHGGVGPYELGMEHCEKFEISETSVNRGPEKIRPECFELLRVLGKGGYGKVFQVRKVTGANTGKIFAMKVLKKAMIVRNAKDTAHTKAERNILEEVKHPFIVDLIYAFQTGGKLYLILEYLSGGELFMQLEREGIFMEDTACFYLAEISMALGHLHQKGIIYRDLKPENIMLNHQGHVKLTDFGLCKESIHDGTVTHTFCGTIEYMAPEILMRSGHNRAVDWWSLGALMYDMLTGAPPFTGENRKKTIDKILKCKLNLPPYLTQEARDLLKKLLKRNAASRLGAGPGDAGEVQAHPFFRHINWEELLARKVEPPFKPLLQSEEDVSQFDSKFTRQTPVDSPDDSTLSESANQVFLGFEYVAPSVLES

As to `Nc1n[nH]c2nc(-c3ccc(NS(=O)(=O)c4cc(Cl)ccc4Cl)cc3)ncc12` [14H, reference compound], the IC50 in assay [1] is 0.01 µM; in assay [3], 0.076 µM; in assay [6], 0.004 µM. Besides, the pNDRG1 phosphorylation entry in assay [2] (basal, no inhibition of Akt) is on record as “minimal effect”. Further, the NDRG1 phosphorylation entry in assay [2] (in the presence of 3 μM AZD5363) is recorded as “markedly suppressed”. For the same molecule, the “growth in combination with GDC0941 or AZD5363” value in assay [4] and in assay [5] was “further suppressed cell growth” in each case.

The IC50 is the point on the concentration scale where inhibition reaches its midpoint.

Values taken from PMC6757289, “Design and Characterization of SGK3-PROTAC1, an Isoform Specific SGK3 Kinase PROTAC Degrader” (ACS Chemical Biology, 2019).
